Counter-ions that a name gives are not always drawn.
Tests used:
human 5-HT2A receptor = molecular target: T1, human 5-HT2A receptor (Homo sapiens, UniProt P28223); assay: 5-HT2A FLIPR assay (calcium response to DOI) in CHO cells; assay type: cell-based; settings: for IC50: antagonist inhibition of 3 nM DOI stimulation, CHO cells, FLIPR; for inhibition at 1 µM: CHO, read-out: 5-HT2A Percentage inhibition at 1 μM
T1 construct: expressed in transfected cells; host or cells: CHO
How it was run: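 CHO cells loaded with calcium dye in HBSS/20 mM HEPES; FLIPR fluorescence recorded after compound addition (10^−10–10^−5 M) for 2 min to detect agonism, then after 3 nM DOI challenge for 5 min for antagonism. Data log transformed before analysis.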

human hNET = molecular target: T2, human hNET (Homo sapiens, UniProt P23975); assay: Norepinephrine (NE) uptake assay in MDCK-Net6 cells; assay type: cell-based; settings: [3H]NE uptake; for inhibition at 1 µM: MDCK-Net6 cells, read-out: hNET Percentage inhibition at 1 μM; for EC50: MDCK-Net6 cells stably transfected with hNET
T2 construct: expressed in transfected cells; host or cells: MDCK (MDCK-Net6)
T2 sequence (P23975 whole entry): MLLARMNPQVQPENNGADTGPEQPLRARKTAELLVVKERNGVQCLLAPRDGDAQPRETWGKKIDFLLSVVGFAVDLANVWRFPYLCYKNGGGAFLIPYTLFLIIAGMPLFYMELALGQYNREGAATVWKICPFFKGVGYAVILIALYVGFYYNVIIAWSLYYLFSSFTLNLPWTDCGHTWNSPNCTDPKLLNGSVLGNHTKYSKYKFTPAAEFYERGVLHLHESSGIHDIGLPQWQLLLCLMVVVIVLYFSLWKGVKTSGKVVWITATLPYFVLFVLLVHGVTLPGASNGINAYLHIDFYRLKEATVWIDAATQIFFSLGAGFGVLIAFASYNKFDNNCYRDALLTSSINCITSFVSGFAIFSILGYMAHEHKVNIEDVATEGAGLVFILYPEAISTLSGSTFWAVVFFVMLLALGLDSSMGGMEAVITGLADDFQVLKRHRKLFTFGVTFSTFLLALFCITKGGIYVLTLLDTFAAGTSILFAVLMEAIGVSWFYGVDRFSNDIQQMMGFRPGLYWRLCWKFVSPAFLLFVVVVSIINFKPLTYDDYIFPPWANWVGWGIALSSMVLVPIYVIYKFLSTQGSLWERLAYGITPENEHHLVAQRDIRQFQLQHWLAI

T1 sequence (P28223 whole entry): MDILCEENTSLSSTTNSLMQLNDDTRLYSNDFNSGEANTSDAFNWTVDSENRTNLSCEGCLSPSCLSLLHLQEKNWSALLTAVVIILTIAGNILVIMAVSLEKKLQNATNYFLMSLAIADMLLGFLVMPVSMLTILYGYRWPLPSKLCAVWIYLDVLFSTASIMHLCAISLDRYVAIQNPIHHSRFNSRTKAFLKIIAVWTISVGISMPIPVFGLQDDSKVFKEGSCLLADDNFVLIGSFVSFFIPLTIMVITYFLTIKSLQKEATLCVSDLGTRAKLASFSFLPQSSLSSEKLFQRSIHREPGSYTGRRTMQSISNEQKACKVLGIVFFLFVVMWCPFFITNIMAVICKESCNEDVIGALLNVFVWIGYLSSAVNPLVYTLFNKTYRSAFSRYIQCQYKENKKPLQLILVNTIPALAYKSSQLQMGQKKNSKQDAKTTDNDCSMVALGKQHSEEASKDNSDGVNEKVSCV

Row | Compound | IC50 (human 5-HT2A receptor) [nM] | inhibition at 1 µM (human hNET) [%] | inhibition at 1 µM (human 5-HT2A receptor) [%] | EC50 (human hNET) [nM]
1 | CCNC[C@@H](O)[C@H](c1ccccc1)N1C(=O)C2(CCCCC2)c2ccc(F)cc21 [Example 96, 1′-[(1S,2R)-3-(ethylamino)-2-hydroxy-1-phenylpropyl]-6′-fluorospiro[cyclohexane-1,3′-indol]-2′(1′H)-one hydrochloride] | 462 | 48 |  | 
2 | CC(C)NC[C@@H](O)[C@H](c1ccccc1)N1C(=O)C2(CCCCC2)c2ccc(F)cc21 [Example 97, 6′-fluoro-1′-[(1S,2R)-2-hydroxy-3-(isopropylamino)-1-phenylpropyl]spiro[cyclohexane-1,3′-indol]-2′(1′H)-one hydrochloride] |  | 0 | 44 | 
3 | CCCNC[C@@H](O)[C@H](c1ccccc1)N1C(=O)C2(CCCCC2)c2ccc(F)cc21 [Example 98, 6′-fluoro-1′-[(1S,2R)-2-hydroxy-1-phenyl-3-(propylamino)propyl]spiro[cyclohexane-1,3′-indol]-2′(1′H)-one hydrochloride] | 672 | 0 |  | 
4 | NC[C@@H](O)[C@H](c1ccccc1)N1C(=O)C2(CCCCC2)c2cc(F)ccc21 [Example 99, 1′-[(1S,2R)-3-amino-2-hydroxy-1-phenylpropyl]-5′-fluorospiro[cyclohexane-1,3′-indol]-2′(1′H)-one hydrochloride] |  | 11 | 7 | 
5 | CCNC[C@@H](O)[C@H](c1ccccc1)N1C(=O)C2(CCCCC2)c2cc(F)ccc21 [Example 100, 1′-[(1S,2R)-3-(ethylamino)-2-hydroxy-1-phenylpropyl]-5′-fluorospiro[cyclohexane-1,3′-indol]-2′(1′H)-one hydrochloride] | 378 | 31 |  | 
6 | CC(C)NC[C@@H](O)[C@H](c1ccccc1)N1C(=O)C2(CCCCC2)c2cc(F)ccc21 [Example 101, 5′-fluoro-1′-[(1S,2R)-2-hydroxy-3-(isopropylamino)-1-phenylpropyl]spiro[cyclohexane-1,3′-indol]-2′(1′H)-one hydrochloride] |  | 0 | 22 | 
7 | CCCNC[C@@H](O)[C@H](c1ccccc1)N1C(=O)C2(CCCCC2)c2cc(F)ccc21 [Example 102, 5′-fluoro-1′-[(1S,2R)-2-hydroxy-1-phenyl-3-(propylamino)propyl]spiro[cyclohexane-1,3′-indol]-2′(1′H)-one hydrochloride] | 895 | 0 |  | 
8 | CN(C)C[C@@H](O)[C@H](c1ccccc1)N1C(=O)C2(CCCCC2)c2cc(F)ccc21 [Example 103, 1′-[(1S,2R)-3-(dimethylamino)-2-hydroxy-1-phenylpropyl]-5′-fluorospiro[cyclohexane-1,3′-indol]-2′(1′H)-one hydrochloride] | 77 | 19 |  | 
9 | O=C1N([C@@H](c2ccccc2)[C@H](O)CN2CCOCC2)c2ccc(F)cc2C12CCCCC2 [Example 104, 5′-fluoro-1′-[(1S,2R)-2-hydroxy-3-morpholin-4-yl-1-phenylpropyl]spiro[cyclohexane-1,3′-indol]-2′(1′H)-one hydrochloride] |  | 13 | 22 | 
10 | CNC[C@@H](O)[C@H](c1ccccc1)N1C(=O)C2(CCCCC2)c2cc(OC)ccc21 [Example 105, 1′-[(1S,2R)-2-hydroxy-3-(methylamino)-1-phenylpropyl]-5′-methoxyspiro[cyclohexane-1,3′-indol]-2′(1′H)-one hydrochloride] |  |  | 37 | 81
11 | CNC[C@@H](O)[C@H](c1ccccc1)N1C(=O)C2(CCCCC2)c2ccc(OC)cc21 [Example 106, 1′-[(1S,2R)-2-hydroxy-3-(methylamino)-1-phenylpropyl]-6′-methoxyspiro[cyclohexane-1,3′-indol]-2′(1′H)-one hydrochloride] | 615 |  |  | 908
12 | CNC[C@@H](O)[C@H](c1ccccc1)N1C(=O)C2(CCCCC2)c2cc(C#N)ccc21 [Example 107, 1′-[(1S,2R)-2-hydroxy-3-(methylamino)-1-phenylpropyl]-2′-oxo-1′,2′-dihydrospiro[cyclohexane-1,3′-indole]-5′-carbonitrile hydrochloride] | 168 |  |  | 349
13 | CNC[C@@H](O)[C@H](c1ccccc1)N1C(=O)C2(CCCCC2)c2ccc(C#N)cc21 [Example 108, 1′-[(1S,2R)-2-hydroxy-3-(methylamino)-1-phenylpropyl]-2′-oxo-1′,2′-dihydrospiro[cyclohexane-1,3′-indole]-6′-carbonitrile hydrochloride] |  |  | 11 | 1260
14 | CNC[C@@H](O)[C@H](c1ccccc1)N1C(=O)C2(CCCCC2)c2c1ccc(F)c2F [Example 109, 4′,5′-difluoro-1′-[(1S,2R)-2-hydroxy-3-(methylamino)-1-phenylpropyl]spiro[cyclohexane-1,3′-indol]-2′(1′H)-one hydrochloride] | 1480 |  |  | 107
